Test results: the supplement of paper PMC11451515

System: SEM cells
Assay: cell viability relative to DMSO control; higher = less cytotoxic
Conditions: 48 h
Outline: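 NOMO1 or SEM cells were plated at 500 cells/well and P12-Ichikawa cells at 1000 cells/well in 1536-well plates (5 μl), after each leukemia line had been adapted for at least four passages in each medium. Pin dosing delivered library compounds in DMSO at 11 threefold concentrations, 47 μM to 0.79 nM. CellTiter-Glo One luminescence was read after 48 h at 37°C. Viability is reported as a per-plate percentage of DMSO wells, with cell-free wells as background.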

[1] = HPLM + 10% dialyzed FBS, 0.000781 µM
[2] = HPLM + 10% dialyzed FBS, 0.00234 µM
[3] = HPLM + 10% dialyzed FBS, 0.00702 µM
[4] = HPLM + 10% dialyzed FBS, 0.0211 µM
[5] = HPLM + 10% dialyzed FBS, 0.0632 µM
[6] = HPLM + 10% dialyzed FBS, 0.19 µM
[7] = HPLM + 10% dialyzed FBS, 0.569 µM
[8] = HPLM + 10% dialyzed FBS, 1.71 µM
[9] = HPLM + 10% dialyzed FBS, 5.12 µM
[10] = HPLM + 10% dialyzed FBS, 15.4 µM
[11] = HPLM + 10% dialyzed FBS, 46.1 µM
[12] = RPMI 5 mM glucose + 10% FBS, 0.000781 µM
[13] = RPMI 5 mM glucose + 10% FBS, 0.00234 µM
[14] = RPMI 5 mM glucose + 10% FBS, 0.00702 µM
[15] = RPMI 5 mM glucose + 10% FBS, 0.0211 µM
[16] = RPMI 5 mM glucose + 10% FBS, 0.0632 µM
[17] = RPMI 5 mM glucose + 10% FBS, 0.19 µM
[18] = RPMI 5 mM glucose + 10% FBS, 0.569 µM
[19] = RPMI 5 mM glucose + 10% FBS, 1.71 µM
[20] = RPMI 5 mM glucose + 10% FBS, 5.12 µM
[21] = RPMI 5 mM glucose + 10% FBS, 15.4 µM
[22] = RPMI 5 mM glucose + 10% FBS, 46.1 µM
[23] = RPMI 5 mM glucose + 10% dialyzed FBS, 0.000781 µM
[24] = RPMI 5 mM glucose + 10% dialyzed FBS, 0.00234 µM
[25] = RPMI 5 mM glucose + 10% dialyzed FBS, 0.00702 µM
[26] = RPMI 5 mM glucose + 10% dialyzed FBS, 0.0211 µM
[27] = RPMI 5 mM glucose + 10% dialyzed FBS, 0.0632 µM
[28] = RPMI 5 mM glucose + 10% dialyzed FBS, 0.19 µM
[29] = RPMI 5 mM glucose + 10% dialyzed FBS, 0.569 µM
[30] = RPMI 5 mM glucose + 10% dialyzed FBS, 1.71 µM
[31] = RPMI 5 mM glucose + 10% dialyzed FBS, 5.12 µM
[32] = RPMI 5 mM glucose + 10% dialyzed FBS, 15.4 µM
[33] = RPMI 5 mM glucose + 10% dialyzed FBS, 46.1 µM

`COc1ccc(F)c(F)c1C(=O)c1cnc(NC2CCN([S+](C)(=O)[O-])CC2)nc1N` gave a cell viability [1] of 94.9%, a cell viability [2] of 103% and a cell viability [3] of 109%. For the same compound, the cell viability [4] was 113%, the cell viability [5] was 109% and the cell viability [6] was 113%. The cell viability [7] was 64.6%, the cell viability [8] was 79% and the cell viability [9] was 41.6%. It also gave a cell viability [10] of 4.32%, a cell viability [11] of 1.78% and a cell viability [12] of 115%. It also gave a cell viability [13] of 130%, a cell viability [14] of 121% and a cell viability [15] of 130%. The cell viability [16] was 123%, the cell viability [17] was 135% and the cell viability [18] was 80.4%. The cell viability [19] was 83.1%, the cell viability [20] was 43.4% and the cell viability [21] was 3.24%. It also gave a cell viability [22] of 1.43%, a cell viability [23] of 101% and a cell viability [24] of 97.7%. The cell viability [25] was 111%, the cell viability [26] was 98.2% and the cell viability [27] was 99.3%. For the same compound, the cell viability [28] was 114%, the cell viability [29] was 77.4% and the cell viability [30] was 91.1%. It also gave a cell viability [31] of 54.1%, a cell viability [32] of 3.36% and a cell viability [33] of 1.73%.

`Cc1ccc([C@@H]2O[C@H](CO)[C@@H](O)[C@H](O)[C@H]2O)cc1Cc1ccc(-c2ccc(F)cc2)s1` showed a cell viability [1] of 108%, a cell viability [2] of 112% and a cell viability [3] of 117%. The cell viability [4] was 112%, the cell viability [5] was 130% and the cell viability [6] was 114%. The cell viability [7] was 119%, the cell viability [8] was 115% and the cell viability [9] was 110%. It also gave a cell viability [10] of 125%, a cell viability [11] of 101% and a cell viability [12] of 109%. It also gave a cell viability [13] of 117%, a cell viability [14] of 112% and a cell viability [15] of 122%. For the same compound, the cell viability [16] was 114%, the cell viability [17] was 117% and the cell viability [18] was 123%. The cell viability [19] was 121%, the cell viability [20] was 111% and the cell viability [21] was 118%. For the same compound, the cell viability [22] was 69.5%, the cell viability [23] was 113% and the cell viability [24] was 103%. For the same compound, the cell viability [25] was 106%, the cell viability [26] was 118% and the cell viability [27] was 132%. For the same compound, the cell viability [28] was 119%, the cell viability [29] was 109% and the cell viability [30] was 98.7%. The cell viability [31] was 107%, the cell viability [32] was 116% and the cell viability [33] was 71.2%.

Work on `CN(C)c1nc(Cc2ccc(NC(=O)c3ccc(C(F)(F)F)cc3)cc2)nc(N(C)C)c1CC(=O)O` yielded a cell viability [1] of 104%, a cell viability [2] of 107% and a cell viability [3] of 106%. For the same compound, the cell viability [4] was 100%, the cell viability [5] was 116% and the cell viability [6] was 100%. The cell viability [7] was 123%, the cell viability [8] was 112% and the cell viability [9] was 125%. For the same compound, the cell viability [10] was 116%, the cell viability [11] was 83.4% and the cell viability [12] was 113%. For the same compound, the cell viability [13] was 99.4%, the cell viability [14] was 101% and the cell viability [15] was 93.7%. For the same compound, the cell viability [16] was 111%, the cell viability [17] was 82.8% and the cell viability [18] was 118%. For the same compound, the cell viability [19] was 93.4%, the cell viability [20] was 110% and the cell viability [21] was 100%. It also gave a cell viability [22] of 74.7%, a cell viability [23] of 99.1% and a cell viability [24] of 118%. It also gave a cell viability [25] of 102%, a cell viability [26] of 108% and a cell viability [27] of 121%. The cell viability [28] was 117%, the cell viability [29] was 113% and the cell viability [30] was 115%. For the same compound, the cell viability [31] was 109%, the cell viability [32] was 105% and the cell viability [33] was 90%.

For `COCCn1c2c([n+](Cc3cnccn3)c1C)C(=O)c1ccccc1C2=O`, the cell viability [1] was 128%, the cell viability [2] was 113% and the cell viability [3] was 123%. The cell viability [4] was 50.7%, the cell viability [5] was 23.5% and the cell viability [6] was 11.2%. For the same compound, the cell viability [7] was 7.74%, the cell viability [8] was 8.7% and the cell viability [9] was 8.71%. It also gave a cell viability [10] of 4.23%, a cell viability [11] of 3.41% and a cell viability [12] of 116%. The cell viability [13] was 128%, the cell viability [14] was 114% and the cell viability [15] was 110%. The cell viability [16] was 71.4%, the cell viability [17] was 15.5% and the cell viability [18] was 7.97%. The cell viability [19] was 8.06%, the cell viability [20] was 5.61% and the cell viability [21] was 4.16%. The cell viability [22] was 2.77%, the cell viability [23] was 105% and the cell viability [24] was 132%. It also gave a cell viability [25] of 117%, a cell viability [26] of 91.1% and a cell viability [27] of 46.2%. The cell viability [28] was 12.6%, the cell viability [29] was 8.08% and the cell viability [30] was 7.35%. It also gave a cell viability [31] of 5.94%, a cell viability [32] of 4.15% and a cell viability [33] of 3.55%.

In the case of `CNC[C@H](O)[C@@H](O)[C@H](O)[C@H](O)CO`, the cell viability [1] is reported as 96.3%, the cell viability [2] is reported as 106% and the cell viability [3] is reported as 103%. It also gave a cell viability [4] of 106%, a cell viability [5] of 106% and a cell viability [6] of 114%. The cell viability [7] was 127%, the cell viability [8] was 63.4% and the cell viability [9] was 121%. For the same compound, the cell viability [10] was 40.9%, the cell viability [11] was 112% and the cell viability [12] was 103%. For the same compound, the cell viability [13] was 96.2%, the cell viability [14] was 107% and the cell viability [15] was 93.9%. The cell viability [16] was 117%, the cell viability [17] was 115% and the cell viability [18] was 132%. For the same compound, the cell viability [19] was 61.3%, the cell viability [20] was 112% and the cell viability [21] was 24.9%. It also gave a cell viability [22] of 114%, a cell viability [23] of 98.1% and a cell viability [24] of 118%. The cell viability [25] was 98.8%, the cell viability [26] was 88.8% and the cell viability [27] was 116%. For the same compound, the cell viability [28] was 103%, the cell viability [29] was 122% and the cell viability [30] was 58.3%. For the same compound, the cell viability [31] was 136%, the cell viability [32] was 28% and the cell viability [33] was 119%.

In the case of `CCc1ccc(OCc2ccccc2C(=O)Nc2ccc3nc(C)cc(N)c3c2)cc1`, the cell viability [1] is reported as 75.2%, the cell viability [2] is reported as 102% and the cell viability [3] is reported as 98.9%. The cell viability [4] was 90.2%, the cell viability [5] was 104% and the cell viability [6] was 117%. It also gave a cell viability [7] of 110%, a cell viability [8] of 109% and a cell viability [9] of 26.6%. The cell viability [10] was 11.3%, the cell viability [11] was 8.33% and the cell viability [12] was 98.5%. For the same compound, the cell viability [13] was 102%, the cell viability [14] was 98.9% and the cell viability [15] was 99.3%. It also gave a cell viability [16] of 112%, a cell viability [17] of 111% and a cell viability [18] of 122%. It also gave a cell viability [19] of 116%, a cell viability [20] of 109% and a cell viability [21] of 20.7%. The cell viability [22] was 7.66%, the cell viability [23] was 94.4% and the cell viability [24] was 107%. For the same compound, the cell viability [25] was 91.4%, the cell viability [26] was 107% and the cell viability [27] was 103%. The cell viability [28] was 114%, the cell viability [29] was 111% and the cell viability [30] was 102%. The cell viability [31] was 111%, the cell viability [32] was 22.1% and the cell viability [33] was 7.91%.

For `CCn1nnc2c(N3CCOCC3)nc(-c3ccc(NC(=O)Nc4ccc(C(=O)N5CCN(C)CC5)cc4)cc3)nc21`, the cell viability [1] was 109%, the cell viability [2] was 104% and the cell viability [3] was 87.4%. For the same compound, the cell viability [4] was 82.6%, the cell viability [5] was 61.5% and the cell viability [6] was 58.2%. The cell viability [7] was 103%, the cell viability [8] was 54.3% and the cell viability [9] was 54.1%. It also gave a cell viability [10] of 49.8%, a cell viability [11] of 41.9% and a cell viability [12] of 124%. For the same compound, the cell viability [13] was 116%, the cell viability [14] was 90.5% and the cell viability [15] was 81.3%. For the same compound, the cell viability [16] was 64.2%, the cell viability [17] was 56.2% and the cell viability [18] was 114%. It also gave a cell viability [19] of 49.5%, a cell viability [20] of 48.4% and a cell viability [21] of 46.4%. It also gave a cell viability [22] of 40.5%, a cell viability [23] of 101% and a cell viability [24] of 95.9%. For the same compound, the cell viability [25] was 79%, the cell viability [26] was 71.6% and the cell viability [27] was 60.3%. It also gave a cell viability [28] of 54.3%, a cell viability [29] of 123% and a cell viability [30] of 50.8%. For the same compound, the cell viability [31] was 49.5%, the cell viability [32] was 44.9% and the cell viability [33] was 47.8%.
